Where two headings read alike, the source gives them in different places.
Tests used:
[1] = test system: maximal electroshock seizure (MES); assay: maximal electroshock seizure test (MES); type: in vivo; conditions: rats; for anticonvulsant activity in the MES test: result in words; for ED50: Rattus norvegicus
Text: (§1) The first model the maximal electroshock seizure test (MES), is used to show efficacy for antiepileptic agents against partial and generalized seizure type epilepsy, the common epilepsy among therapy resistant epileptic patients. The second model, the subcutaneous pentylenetetrazole test (s.c. Met) which measures seizure threshold and is a standard screening procedure to show efficacy for agents against […] seizures. In these studies, convulsions were inhibited or prevented after oral (p.o.) and intraperitoneal (ip) administration of the compounds.

[2] = test system: subcutaneous pentylenetetrazole induced convulsions (seizure threshold); assay: subcutaneous pentylenetetrazole test (s.c. Met); type: in vivo; conditions: rats, table title: oral administration; for ED50: Rattus norvegicus, read-out: sc Met ED50
Text: as §1

[3] = test system: audiogenic seizures; assay: audiogenic seizures in Frings audiogenic seizure susceptible mice; type: in vivo; conditions: for potency compared with VPA in audiogenic seizure model: in words
Procedure: In mice the compounds were tested for their ability to protect against audiogenic seizures in the Frings audiogenic seizure susceptible mice after ip administration. This model is considered as a good screening model in pharmacologic studies for CNS active compounds.

[4] = Neurotoxicity, Gait and Stance test
Procedure: Neurotoxicity of the agents was assessed in rats (p.o. and ip administration) in the Gait and Stance test and in mice in the Rotarod Ataxia test, which assess minimal neurotoxicity.

[5] = test system: 6 Hz psychomotor seizure; assay: 6 Hz psychomotor seizure model; type: in vivo; conditions: Mus musculus; mice ip, stimulation intensity 22 mA
[6] = Pharmacokinetics in mongrel dogs; type: in vivo
Procedure: The pharmacokinetics of Compound A were evaluated in mongrel dogs.

[7] = po, p.o. administration, read-out: MES ED50 (mg/kg po)

Structure (SMILES): CCCC(CCC)C(=O)NCCS(=O)(=O)N(C)C [B, N-(2-Propylpentanoyl)taurine-N′,N′-dimethylamide]
- MES ED50 (mg/kg ip) ([1]; ip administration): 50 mg/kg
- MES ED50 (mg/kg po) ([1]; p.o. administration): >160 mg/kg
- anticonvulsant activity in the MES test [1]: showed anticonvulsant activity
- sc Met ED50 [2]: >200 mg/kg
- Audiogenic seizures ED50 ([3]; ip administration): 134 mg/kg
- potency compared with VPA in audiogenic seizure model ([3]; ip): more potent than VPA
- Neurotoxicity TD50 (mg/kg ip) ([4]; rats, ip administration): 175 mg/kg
- TD50 compared with VPA ([4]; rats, in words): significantly higher than TD50 for VPA

Structure (SMILES): CCCC(CCC)C(=O)NCCS(=O)(=O)NC(C)C [C, N-(2-Propylpentanoyl)taurine-N′-isopropylamide]
- MES ED50 (mg/kg ip) ([1]; ip administration): 52 mg/kg
- MES ED50 (mg/kg po) ([1]; p.o. administration): 63 mg/kg
- anticonvulsant activity in the MES test [1]: showed anticonvulsant activity
- sc Met ED50 [2]: >250 mg/kg
- Audiogenic seizures ED50 ([3]; ip administration): 126 mg/kg
- potency compared with VPA in audiogenic seizure model ([3]; ip): more potent than VPA
- Neurotoxicity TD50 (mg/kg ip) ([4]; rats, ip administration): 627 mg/kg
- TD50 compared with VPA ([4]; rats, in words): significantly higher than TD50 for VPA

Structure (SMILES): CCCC(CCC)C(=O)NCCS(N)(=O)=O [Compound A, N-(2-Propylpentanoyl)taurinamide]
- ED50 [1, 7]: 65 mg/kg
- ED50 ([1]; ip administration, read-out: MES ED50 (mg/kg ip)): 50 mg/kg
- anticonvulsant activity in the MES test [1]: showed anticonvulsant activity
- ED50 [2]: > 250 mg/kg
- ED50 ([3]; Mus musculus, ip, ip administration): 50 to 140 mg/kg
- Audiogenic seizures ED50 ([3]; ip administration): 51 mg/kg
- audiogenic seizure ED50 compared with VPA ([3]; ip, relative to VPA): 3 times lower
- ED50 [5]: 188 mg/kg
- TD50 compared with VPA ([4]; rat, in vivo): significantly higher than TD50 for VPA
- Neurotoxicity TD50 (mg/kg ip) ([4]; rat, in vivo, ip): >300 mg/kg
- TD50 ([4]; rat, in vivo, ip): > 300 mg/kg
- Neurotoxicity TD50 (mg/kg po) ([4]; rat, in vivo, po): >500 mg/kg
- TD50 ([4]; rat, in vivo, po): > 500 mg/kg
- half-life ([6]; dog, in vivo): 336 min
- Vd ([6]; dog, in vivo, read-out: Volume of distribution at steady state (Vss)): 0.84 L/kg
- clearance ([6]; dog, in vivo, read-out: total body clearance (CL) (converted)): 1.83 mL/min/kg
- liver extraction ratio ([6]; in words): low

Structure (SMILES): CCCC(CCC)C(=O)NCCS(=O)(=O)N(CC)CC [N-(2-n-propylpentanoyl)taurine-N′,N′-diethylamide]
- anticonvulsant activity in the MES test [1]: showed anticonvulsant activity

Structure (SMILES): CCCC(CCC)C(=O)NCCS(=O)(=O)NCC [N-(2-n-propylpentanoyl)taurine-N′-ethylamide]
- anticonvulsant activity in the MES test [1]: showed anticonvulsant activity

Structure (SMILES): CCCC(CCC)C(=O)NCCS(=O)(=O)NC [N-(2-n-propylpentanoyl)taurine-N′-methylamide]
- anticonvulsant activity in the MES test [1]: showed anticonvulsant activity

Structure (SMILES): CCCC(CCC)C(=O)O [VPA, valproic acid, reference compound]
- ED50 [1, 7]: 490 mg/kg
- ED50 [2]: 180 mg/kg
- TD50 ([4]; rat, in vivo, po): 200 mg/kg
